MIC and inhibition data for 16 compounds are collected here from ChEMBL document CHEMBL4359852, “Design, synthesis and biological evaluation of novel 5-(piperazin-1-yl)quinolin-2(1H)-one derivatives as potential chitin synthase inhibitors and antifungal agents” (Eur J Med Chem, 2019).

Structures are written as SMILES. Converted amounts (≈) assume the structure as drawn.

The subject of one assay is Proteus vulgaris. The experiment in a line: Antibacterial activity against Bacillus proteus ATCC 8427 assessed as reduction in bacterial cell growth incubated for overnight by two-fold serial dilution method. It is filed as functional.
The subject of another assay is Pseudomonas aeruginosa. The experiment in a line: Antibacterial activity against Pseudomonas aeruginosa ATCC 9027 assessed as reduction in bacterial cell growth incubated for overnight by two-fold serial dilution method. Format: functional.
Another assay concerns Aspergillus flavus. Put plainly: Antifungal activity against Aspergillus flavus ATCC 16870 assessed as reduction in fungal cell growth incubated for 48 hrs by two-fold serial dilution method. The conditions noted are these: ATCC 16870, 48 h. Format: functional.
The subject of another assay is Saccharomyces cerevisiae. Put plainly: Inhibition of Saccharomyces cerevisiae CGMCC 2.145 chitin synthase using GlcNAc and UDP-GlcNAc as substrate at 300 ug/ml incubated for 60 mins by microplate reader analysis relative to control.
For a further assay, the system named is Escherichia coli. The experiment in a line: Antibacterial activity against Escherichia coli JM109 assessed as reduction in bacterial cell growth incubated for overnight by two-fold serial dilution method. It is filed as functional.
The subject of the next assay is Cryptococcus neoformans. The experiment in a line: Antifungal activity against Cryptococcus neoformans ATCC 32719 assessed as reduction in fungal cell growth incubated for 48 hrs by two-fold serial dilution method. Format: functional. As to conditions: ATCC 32719, 48 h.
The test system of another assay is Candida albicans. The experiment in a line: Antifungal activity against Candida albicans ATCC 76615 assessed as reduction in fungal cell growth incubated for 48 hrs by two-fold serial dilution method. Format: functional. The conditions noted are these: ATCC 76615, 48 h.
The test system of assay [1] is Staphylococcus aureus. The experiment in a line: Antibacterial activity against methicillin resistant Staphylococcus aureus N 315 assessed as reduction in bacterial cell growth incubated for overnight by two-fold serial dilution method. Format: functional.
Assay [2] deals with Staphylococcus aureus. Put plainly: Antibacterial activity against Staphylococcus aureus ATCC 25923 assessed as reduction in bacterial cell growth incubated for overnight by two-fold serial dilution method. It is filed as functional.
For another assay, the system named is Bacillus subtilis. Put plainly: Antibacterial activity against Bacillus subtilis ATCC 6633 assessed as reduction in bacterial cell growth incubated for overnight by two-fold serial dilution method. Format: functional.

One may read the MIC as the lowest concentration found to suppress growth. As usually defined, the inhibition is the percentage by which the read-out fell short of the control. Low values mean little suppression, high ones strong suppression. As for `Cc1ccc(NCC(O)CN2CCN(c3cccc4c3CCC(=O)N4)CC2)cc1.Cl` (racemic), the MIC in the assay on Proteus vulgaris was 64 µg/mL; with Pseudomonas aeruginosa, 128 µg/mL; with Aspergillus flavus, 128 µg/mL; in the assay with Escherichia coli, 128 µg/mL; in the assay with Cryptococcus neoformans it was above 512 µg/mL; with Candida albicans it was 128 µg/mL. The MIC in the assay with Staphylococcus aureus [1] turned out to be 64 µg/mL; with Staphylococcus aureus [2], 64 µg/mL; in the assay with Bacillus subtilis, 128 µg/mL. This compound also had an inhibition with Saccharomyces cerevisiae of 17.6%.

Take `Cl.O=C1CCc2c(cccc2N2CCN(CC(O)CNCc3ccc(Cl)cc3)CC2)N1` (racemic): the MIC was 128 µg/mL in the assay on Proteus vulgaris; 256 µg/mL with Pseudomonas aeruginosa; 256 µg/mL in the assay with Aspergillus flavus; 256 µg/mL with Escherichia coli; 256 µg/mL in the assay with Cryptococcus neoformans; 128 µg/mL with Candida albicans. The MIC in the assay on Staphylococcus aureus [1], with Staphylococcus aureus [2] and with Bacillus subtilis was 256 µg/mL throughout. Also, the inhibition in the assay with Saccharomyces cerevisiae is 42.5%.

Consider `Cc1ccccc1NCC(O)CN1CCN(c2cccc3c2CCC(=O)N3)CC1.Cl` (racemic), for which the MIC in the assay with Proteus vulgaris came out at 128 µg/mL; in the assay on Pseudomonas aeruginosa, 128 µg/mL; with Aspergillus flavus, 256 µg/mL; with Escherichia coli, 256 µg/mL; in the assay on Cryptococcus neoformans, 256 µg/mL; in the assay on Candida albicans it was 128 µg/mL. Also, the MIC in the assay on Staphylococcus aureus [1], in the assay with Staphylococcus aureus [2] and in the assay with Bacillus subtilis was 128 µg/mL throughout. The inhibition in the assay on Saccharomyces cerevisiae is 28.4%.

For the compound `Cl.O=C1CCc2c(cccc2N2CCN(CC(O)Cn3cnnc3)CC2)N1` (racemic), the MIC with Proteus vulgaris came to 64 µg/mL; with Pseudomonas aeruginosa it was 128 µg/mL; with Aspergillus flavus, 256 µg/mL; in the assay with Escherichia coli it was 64 µg/mL; with Cryptococcus neoformans it was 128 µg/mL; with Candida albicans it was 64 µg/mL. The MIC in the assay with Staphylococcus aureus [1] was 256 µg/mL; in the assay on Staphylococcus aureus [2], 128 µg/mL; in the assay with Bacillus subtilis, 128 µg/mL. The compound also returned an inhibition with Saccharomyces cerevisiae of 30.8%.

Turning to `COc1ccccc1NCC(O)CN1CCN(c2cccc3c2CCC(=O)N3)CC1.Cl` (racemic), the MIC in the assay on Proteus vulgaris came to 256 µg/mL; with Pseudomonas aeruginosa, 128 µg/mL; with Aspergillus flavus it was 256 µg/mL; in the assay on Escherichia coli it was 258 µg/mL; in the assay on Cryptococcus neoformans, 512 µg/mL; in the assay on Candida albicans it was 128 µg/mL. Further, the MIC was found to be 128 µg/mL in the assay on Staphylococcus aureus [1], 256 µg/mL in the assay with Staphylococcus aureus [2] and 256 µg/mL in the assay on Bacillus subtilis. In the assay with Saccharomyces cerevisiae, this compound returned an inhibition of 45.4%.

With `Cl.O=C1CCc2c(cccc2N2CCN(CC(O)CNCc3ccccc3)CC2)N1` (racemic), the MIC in the assay on Proteus vulgaris was 256 µg/mL; with Pseudomonas aeruginosa, 256 µg/mL; in the assay on Aspergillus flavus, above 512 µg/mL; in the assay with Escherichia coli, 256 µg/mL; in the assay with Cryptococcus neoformans, above 512 µg/mL; in the assay with Candida albicans, 128 µg/mL. Moreover, the MIC was found to be 128 µg/mL in the assay on Staphylococcus aureus [1], 256 µg/mL in the assay on Staphylococcus aureus [2] and 256 µg/mL with Bacillus subtilis. Also, in the assay with Saccharomyces cerevisiae, the inhibition was found to be 18.1%.

On to `Cc1cccc(C)c1NCC(O)CN1CCN(c2cccc3c2CCC(=O)N3)CC1.Cl` (racemic), for which the MIC with Proteus vulgaris amounted to 128 µg/mL; in the assay on Pseudomonas aeruginosa, 128 µg/mL; in the assay on Aspergillus flavus it was 256 µg/mL; in the assay with Escherichia coli, 128 µg/mL; in the assay on Cryptococcus neoformans it was 256 µg/mL; with Candida albicans, 128 µg/mL. Moreover, the figures for the MIC in the assay with Staphylococcus aureus [1], with Staphylococcus aureus [2] and in the assay on Bacillus subtilis were 256 µg/mL, 128 µg/mL and 128 µg/mL, respectively. For the same compound, the inhibition with Saccharomyces cerevisiae turned out to be 40.7%.

Consider `CCN(CC)CC(O)CN1CCN(c2cccc3c2CCC(=O)N3)CC1.Cl` (racemic), for which the MIC was 512 µg/mL in the assay with Proteus vulgaris; 128 µg/mL in the assay with Pseudomonas aeruginosa; 512 µg/mL in the assay on Aspergillus flavus; 512 µg/mL with Escherichia coli; 256 µg/mL with Cryptococcus neoformans; 128 µg/mL in the assay with Candida albicans. Moreover, the MIC with Staphylococcus aureus [1] was found to be 256 µg/mL; in the assay with Staphylococcus aureus [2] it was 256 µg/mL; in the assay on Bacillus subtilis it was 512 µg/mL. In the assay with Saccharomyces cerevisiae, this compound came in with an inhibition of 39.4%.

Regarding `CC(C)(C)NCC(O)CN1CCN(c2cccc3c2CCC(=O)N3)CC1.Cl` (racemic), the MIC in the assay with Proteus vulgaris is 256 µg/mL; in the assay with Pseudomonas aeruginosa, 128 µg/mL; with Aspergillus flavus, 256 µg/mL; with Escherichia coli it was 256 µg/mL; with Cryptococcus neoformans, 256 µg/mL; in the assay on Candida albicans, 128 µg/mL. Moreover, the values for the MIC in the assay on Staphylococcus aureus [1], in the assay with Staphylococcus aureus [2] and in the assay with Bacillus subtilis were 256 µg/mL, 256 µg/mL and 512 µg/mL, respectively. In the assay with Saccharomyces cerevisiae, this compound came in with an inhibition of 48.3%.

For `Cl.O=C1CCc2c(cccc2N2CCN(CC(O)CN3CCCCC3)CC2)N1` (racemic), the MIC in the assay with Proteus vulgaris came to 256 µg/mL; in the assay with Pseudomonas aeruginosa, 256 µg/mL; with Aspergillus flavus it was 256 µg/mL; in the assay on Escherichia coli, 128 µg/mL; in the assay on Cryptococcus neoformans, 256 µg/mL; in the assay with Candida albicans, 64 µg/mL. In addition, the results for the MIC in the assay on Staphylococcus aureus [1], in the assay with Staphylococcus aureus [2] and with Bacillus subtilis were 512 µg/mL, 256 µg/mL and 256 µg/mL, respectively. For the same compound, the inhibition in the assay on Saccharomyces cerevisiae was 32.4%.

With `Cl.O=C1CCc2c(cccc2N2CCN(CC(O)CN3CCOCC3)CC2)N1` (racemic), the MIC with Proteus vulgaris amounted to 128 µg/mL; in the assay on Pseudomonas aeruginosa it was 128 µg/mL; with Aspergillus flavus, 256 µg/mL; in the assay on Escherichia coli it was 128 µg/mL; in the assay on Cryptococcus neoformans, 256 µg/mL; in the assay with Candida albicans, 64 µg/mL. Further, the MIC in the assay with Staphylococcus aureus [1] was determined as 128 µg/mL; in the assay on Staphylococcus aureus [2], 256 µg/mL; in the assay on Bacillus subtilis, 128 µg/mL. The inhibition in the assay on Saccharomyces cerevisiae worked out at 44.7%.

For `Cl.O=C1CCc2c(cccc2N2CCN(CC(O)CN3CCNCC3)CC2)N1` (racemic), the MIC in the assay with Proteus vulgaris was determined as 256 µg/mL; in the assay on Pseudomonas aeruginosa, 128 µg/mL; in the assay on Aspergillus flavus, 256 µg/mL; with Escherichia coli, 256 µg/mL; with Cryptococcus neoformans, 256 µg/mL; in the assay on Candida albicans it was 128 µg/mL. Moreover, the results for the MIC with Staphylococcus aureus [1], with Staphylococcus aureus [2] and in the assay with Bacillus subtilis were 256 µg/mL, 256 µg/mL and 128 µg/mL, respectively. Moreover, the inhibition in the assay on Saccharomyces cerevisiae was 38.6%.

As for `Cl.O=C1CCc2c(cccc2N2CCN(CC(O)CNc3cccc4ccccc34)CC2)N1` (racemic), the MIC in the assay on Proteus vulgaris is 128 µg/mL; in the assay with Pseudomonas aeruginosa it was 128 µg/mL; in the assay with Aspergillus flavus it was 512 µg/mL; in the assay with Escherichia coli, 128 µg/mL; in the assay on Cryptococcus neoformans it was 256 µg/mL; in the assay with Candida albicans, 128 µg/mL. Further, the MIC came out at 128 µg/mL in the assay on Staphylococcus aureus [1], 128 µg/mL in the assay on Staphylococcus aureus [2] and 256 µg/mL in the assay on Bacillus subtilis. Also, the inhibition in the assay on Saccharomyces cerevisiae was 47.5%.

Take `OC(Cn1cncn1)(Cn1cncn1)c1ccc(F)cc1F` [FLUCONAZOLE]: the MIC is 64 µg/mL (≈ 209 µM) in the assay on Aspergillus flavus, 4 µg/mL (≈ 13.1 µM) with Cryptococcus neoformans and 16 µg/mL (≈ 52.2 µM) with Candida albicans.

On to `CCn1cc(C(=O)O)c(=O)c2cc(F)c(N3CCNCC3)cc21` [NORFLOXACIN], for which the MIC in the assay on Proteus vulgaris stood at 2 µg/mL (≈ 6.26 µM); in the assay with Pseudomonas aeruginosa, 0.5 µg/mL (≈ 1.57 µM); in the assay with Escherichia coli, 1 µg/mL (≈ 3.13 µM); in the assay on Staphylococcus aureus [1] it was 2 µg/mL (≈ 6.26 µM); with Staphylococcus aureus [2], 2 µg/mL (≈ 6.26 µM); in the assay on Bacillus subtilis, 1 µg/mL (≈ 3.13 µM).

As for `CN[C@@H]1[C@H](O[C@H]2[C@H](O[C@H]3[C@H](O)[C@@H](O)[C@H](N=C(N)N)[C@@H](O)[C@@H]3N=C(N)N)O[C@@H](C)[C@]2(O)C=O)O[C@@H](CO)[C@H](O)[C@H]1O.CN[C@@H]1[C@H](O[C@H]2[C@H](O[C@H]3[C@H](O)[C@@H](O)[C@H](N=C(N)N)[C@@H](O)[C@@H]3N=C(N)N)O[C@@H](C)[C@]2(O)C=O)O[C@@H](CO)[C@H](O)[C@H]1O.O=S(=O)(O)O.O=S(=O)(O)O.O=S(=O)(O)O` [STREPTOMYCIN SULFATE], the MIC in the assay with Proteus vulgaris amounted to 16 µg/mL; in the assay on Pseudomonas aeruginosa it was 16 µg/mL; with Escherichia coli, 4 µg/mL; in the assay on Staphylococcus aureus [1], 32 µg/mL; with Staphylococcus aureus [2] it was 8 µg/mL; in the assay with Bacillus subtilis, 8 µg/mL.
